Results reported in PMC10578308, “Design of Synthetic Surrogates for the Macrolactone Linker Motif in Coibamide A” (ACS Medicinal Chemistry Letters, 2023).
Positions of bridges follow the written chain, without caps; N, C: chain ends. Non-standard residues stand in square brackets, D forms with d. Residues, ends and D or L forms follow the SMILES beside them. *: point of attachment. NMe2Val = CC(C)[C@@H](C(=O)*)N(C)C; NMeI = CC[C@H](C)[C@H](NC)C(=O)O; NMeT = CN[C@H](C(=O)O)[C@@H](C)O; NMeL = CN[C@@H](CC(C)C)C(=O)O; NMeDap = CN[C@@H](CN)C(=O)O; dHiv = CC(C)[C@@H](O)C(=O)O; NMeS = CN[C@@H](CO)C(=O)O; NMeA = CN[C@@H](C)C(=O)O; dNMeA = CN[C@H](C)C(=O)O

Key:
[1] = system: U87-MG glioblastoma cells; assay: CellTiter-Glo viability assay, U87-MG cells; assay type: cell-based, human; conditions: 50% viability after 72-hr incubation, n = 3
Method: (§1) Viability Assays Using U87 MG Cells, HCT116 Cells and normal human dermal fibroblasts.
Human U87-MG glioblastoma, HCT116 colon cancer cells and normal human dermal fibroblasts were from American Type Culture Collection (ATCC, Manasses, VA). U87-MG cells were cultured in Minimum Essential Medium (MEM) with Earl’s salts and L-glutamine (Corning Life Sciences), supplemented with 10% fetal bovine serum (FBS; Hyclone, Logan, UT) and 100 U/mL penicillin and […] streptomycin (1% penicillin/streptomycin). HCT116 cells were cultured in McCoy’s 5A medium supplemented with 10% FBS and 1% penicillin/streptomycin. […]
(§2) (#PCS-201-041) from ATCC. All cells were grown under standard conditions and maintained at 37 °C in an atmosphere of 5% CO2. For analysis of biological activity, cells were seeded at 3,000 cells/well into 96-well plates and allowed to attach overnight. On the day of the experiment, all cells were treated at the same time with the test compound or vehicle (0.1% DMSO) and plates returned to the cell culture incubator for 72 h. The viability of cells was measured at 72 h using a CellTiter-Glo® Luminescent Cell Viability Assay (Promega Corp) and luminescent signals measured using a multi-mode microplate reader (Biotek Synergy HT). Concentration-response relationships were analyzed using GraphPad Prism Software version 9.5.1 (GraphPad Software, Inc., San Diego, CA), and CC50 values derived using nonlinear regression analysis fit to a logistic equation. […]

[2] = system: normal human dermal fibroblasts (HDFs); assay: CellTiter-Glo viability assay, normal human dermal fibroblasts; assay type: cell-based; conditions: 50% viability after 72-hr incubation, n = 3, read-out: HDF CC50
Method: as §1
(§3) Human U87-MG glioblastoma, HCT116 colon cancer cells and normal human dermal fibroblasts were from American Type Culture Collection (ATCC, Manasses, VA). […]
as §2, with “Human dermal fibroblasts were cultured in Fibroblast Basal Medium (#PCS-201-030) supplemented with Fibroblast Growth Kit (#PCS-201-041)” for “(#PCS-201-041)”

[3] = target: GLuc secretion (model Sec61 substrate) from U87-MG-GLuc cells (Homo sapiens, UniProt P61619); assay: Gaussia luciferase (GLuc) secretory assay; assay type: cell-based; conditions: 18-h incubation, n = 3, read-out: IC50 (50% inhibition of GLuc expression)
Chain of GLuc secretion (model Sec61 substrate) from U87-MG-GLuc cells (P61619 whole entry): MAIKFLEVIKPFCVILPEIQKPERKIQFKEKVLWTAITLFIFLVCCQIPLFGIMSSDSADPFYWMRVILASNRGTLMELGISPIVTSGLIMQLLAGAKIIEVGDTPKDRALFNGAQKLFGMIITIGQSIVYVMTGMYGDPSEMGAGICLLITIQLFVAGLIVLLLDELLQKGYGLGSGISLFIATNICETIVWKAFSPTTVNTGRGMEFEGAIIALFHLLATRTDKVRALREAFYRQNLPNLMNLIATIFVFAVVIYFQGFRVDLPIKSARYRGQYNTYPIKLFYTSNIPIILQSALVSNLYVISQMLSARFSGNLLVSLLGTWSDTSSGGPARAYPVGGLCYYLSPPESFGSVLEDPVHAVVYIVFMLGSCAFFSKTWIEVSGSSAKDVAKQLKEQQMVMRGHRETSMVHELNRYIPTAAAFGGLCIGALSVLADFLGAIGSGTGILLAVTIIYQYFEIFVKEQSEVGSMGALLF
Method: To investigate the mechanistic basis for cytotoxicity, all CbA derivatives were evaluated for their ability to inhibit expression of a model Sec61 substrate using U87-MG cells engineered to express a naturally secreted reporter protein, Gaussia luciferase (GLuc) (Tables 1 and 2). For these studies, U87-MG-GLuc cells were exposed to increasing concentrations of each peptide, or vehicle, for 18 h, and the cell culture medium was assayed for the presence of GLuc. […]
Gaussia Luciferase (GLuc) Secretory Assay
The generation of U87-MG cells expressing the secreted reporter Gaussia luciferase (GLuc) has been described previously.S5,S6 U87-MG-GLuc cells were cultured in Minimum Essential Medium (MEM) with Earl’s salts and L-glutamine (Corning Life Sciences), supplemented with 10% fetal bovine serum […]
(FBS; Hyclone, Logan, UT) and 100 U/mL penicillin and […] streptomycin (1% penicillin/streptomycin). All cells were grown under standard conditions and maintained at 37 °C in an atmosphere of 5% CO2. For analysis of biological activity, cells were seeded at 3,000 cells/well into 96-well plates and allowed to attach overnight. On the day of the experiment, all cells were treated at the same time with the test compound or vehicle (0.1% DMSO) and plates returned to the cell culture

[4] = system: HCT116 colon cancer cells; assay: CellTiter-Glo viability assay, HCT116 cells; assay type: cell-based, human; conditions: 50% viability after 72-hr incubation, n = 3
Method: as §1, §3
100 mg/mL streptomycin (1% penicillin/streptomycin). HCT116 cells were cultured in McCoy’s 5A medium supplemented with 10% FBS and 1% penicillin/streptomycin. […]
as §2

[5] = system: human A549 lung cancer cells; assay: MTS antiproliferative/cell viability assay in A549 cells; assay type: cell-based; conditions: for CC50: human A549 lung cancer cells, MTS, 72 h, n = 3, read-out: CC50 (concentration for a 50% decrease in viability)
Method: Next, we synthesized CbA derivatives 3a,b by Fmoc-based SPPS using Fmoc/Alloc protected lysine derivatives 4a,b, according to the synthetic procedure for CbA mimetics in our previous study (Scheme S2).[21] The bioactivity profile of the resulting peptides 3a,b was investigated by using a standard MTS antiproliferative/cell viability assay to assess the cytotoxic potential of CbA analogues against human A549 lung cancer cells (Table 1).
10% (v/v) fetal bovine serum at 37 °C in a 5% CO2-incubator. Viability assays using A549 cells were performed in 96-well plates (BD Falcon). A549 cells were seeded at 1000 cells/well in 90 μL of culture media, respectively, and were cultured for 24 h. Chemical compounds in DMSO were diluted 50-fold with the culture medium in advance. 30 μL of the chemical diluents were added. The final volume of DMSO in the medium was equal to 0.5% (v/v). The cells under chemical treatment were incubated for a further 72 h. The wells in the plates were washed twice with the cultured medium without phenol- […]
After 1-hour incubation with 100 μL of the medium, the cell culture in each well was supplemented with 20 μL of the MTS reagent (Promega), followed by incubation for additional 40 min. Absorbance at 490 nm of each well was measured using a Wallac 1420 ARVO SX multilabel counter (Perkin Elmer).
Three experiments were performed per condition and the averages of inhibition rates in each condition were evaluated to determine IC50 values using the GraphPad Prism software. […]

[6] = CellTiter-Glo viability assay, normal human dermal fibroblasts; assay type: cell-based; conditions: normal human dermal fibroblasts (HDFs), 50% viability after 72-hr incubation, n = 3, read-out: HDF CC50
Method: as §1, §3
as §2, with “Human dermal fibroblasts were cultured in Fibroblast Basal Medium (#PCS-201-030) supplemented with Fibroblast Growth Kit (#PCS-201-041)” for “(#PCS-201-041)”

[7] = system: endogenous VEGF-A secreted from human SF-268 glioblastoma cells; assay: Detection of secreted VEGF-A by ELISA; assay type: cell-based; conditions: 24 h, Figure S5

CC[C@H](C)[C@H]1C(=O)N[C@@H](C)C(=O)N(C)[C@@H](CC(C)C)C(=O)N[C@@H](Cc2ccc(OC)cc2)C(=O)N(C)[C@H](C)C(=O)NC[C@H](N(C)C(=O)[C@H](CC(C)C)N(C)C(=O)[C@H](C)N(C)C(=O)[C@H](OC(=O)[C@H](C(C)C)N(C)C)C(C)C)C(=O)N(C)[C@@H](C)C(=O)N1C [Peptide 17a] (NMe2Val-[dHiv][NMeA][NMeL][NMeDap][NMeA][NMeI]A[NMeL]Y(Me)[dNMeA]; lactam 4-C)
CC50 [1]: 48 ± 3 nM
CC50 [2]: 123 ± 25 nM
IC50 [3]: 30 ± 3.9 nM
CC50 [4]: 60 ± 4 nM

CC[C@H](C)[C@H]1C(=O)N[C@@H](C)C(=O)N(C)[C@@H](CC(C)C)C(=O)N[C@@H](Cc2ccc(OC)cc2)C(=O)N(C)[C@H](C)/C=C/[C@H](C)[C@H](N(C)C(=O)[C@H](CC(C)C)N(C)C(=O)[C@H](C)N(C)C(=O)[C@H](OC(=O)[C@H](C(C)C)N(C)C)C(C)C)C(=O)N(C)[C@@H](C)C(=O)N1C [Peptide 3b]
CC50 [1]: 6.2 ± 0.1 nM
CC50 [2]: 8.3 ± 2.1 nM
IC50 [3]: 13 ± 2 nM
fold more potent (cytotoxicity) than 3a ([5]; A549 cells, CC50 compared with 3a): 10 fold
CC50 [5]: 2.6 ± 0.4 nM
CC50 [4]: 11 ± 1 nM

CC[C@H](C)[C@H]1C(=O)N[C@@H](C)C(=O)N(C)[C@@H](CC(C)C)C(=O)N[C@@H](Cc2ccc(-c3ccccc3)cc2)C(=O)N(C)[C@H](C)C(=O)N[C@H](C)[C@H](N(C)C(=O)[C@H](CC(C)C)N(C)C(=O)[C@H](COC)N(C)C(=O)[C@H](OC(=O)[C@H](C(C)C)N(C)C)C(C)C)C(=O)N(C)[C@@H](COC)C(=O)N1C [Peptide 16c]
CC50 [1]: 0.6 ± 0.2 nM
CC50 [2]: 0.38 ± 0.08 nM
IC50 [3]: 0.08 ± 0.03 nM
fold more potent (cytotoxicity) than 1a ([5]; A549 cells, CC50 compared with 1a): approximately 5 fold
CC50 [5]: 0.27 ± 0.1 nM
CC50 [4]: 0.8 ± 0.23 nM

CC[C@H](C)[C@H]1C(=O)N[C@@H](C)C(=O)N(C)[C@@H](CC(C)C)C(=O)N[C@@H](Cc2ccc(OC)cc2)C(=O)N(C)[C@H](C)C(=O)N[C@H](C)[C@H](N(C)C(=O)[C@H](CC(C)C)N(C)C(=O)[C@H](COC)N(C)C(=O)[C@H](OC(=O)[C@H](C(C)C)N(C)C)C(C)C)C(=O)N(C)[C@@H](COC)C(=O)N1C [Peptide 16b]
CC50 [1]: 2.2 ± 0.4 nM
CC50 [2]: 3.9 ± 1.5 nM
IC50 [3]: 0.04 ± 0.02 nM
CC50 [5]: 1.3 ± 0.3 nM
CC50 [4]: 3.4 ± 0.6 nM

CC[C@H](C)[C@H]1C(=O)N[C@@H](C)C(=O)N(C)[C@@H](CC(C)C)C(=O)N[C@@H](Cc2ccc(OC)cc2)C(=O)N(C)[C@H](C)C(=O)O[C@H](C)[C@H](N(C)C(=O)[C@H](CC(C)C)N(C)C(=O)[C@H](C)N(C)C(=O)[C@H](OC(=O)[C@H](C(C)C)N(C)C)C(C)C)C(=O)N(C)[C@@H](C)C(=O)N1C [Peptide 1b, reference compound] (NMe2Val-[dHiv][NMeA][NMeL][NMeT][NMeA][NMeI]A[NMeL]Y(Me)[dNMeA]; ester 4-C)
CC50 [1]: 2.6 ± 0.1 nM
CC50 [2]: 4.6 ± 1.5 nM
IC50 [3]: 2 ± 0.3 nM
CC50 [5]: 3.1 ± 0.8 nM
CC50 [4]: 3.9 ± 0.5 nM

CC[C@H](C)[C@H]1C(=O)N[C@@H](C)C(=O)N(C)[C@@H](CC(C)C)C(=O)N[C@@H](Cc2ccc(OC)cc2)C(=O)N(C)[C@H](C)C(=O)N[C@H](C)[C@H](N(C)C(=O)[C@H](CC(C)C)N(C)C(=O)[C@H](C)N(C)C(=O)[C@H](OC(=O)[C@H](C(C)C)N(C)C)C(C)C)C(=O)N(C)[C@@H](C)C(=O)N1C [Peptide 16a]
CC50 [1]: 3.9 ± 0.5 nM
CC50 [2]: 4.6 ± 1.4 nM
IC50 [3]: 0.71 ± 0.09 nM
CC50 [5]: 3.6 ± 1.4 nM
CC50 [4]: 4.5 ± 0.5 nM

CC[C@H](C)[C@H]1C(=O)N[C@@H](C)C(=O)N(C)[C@@H](CC(C)C)C(=O)N[C@@H](Cc2ccc(OC)cc2)C(=O)N(C)[C@H](C)C(=O)O[C@H](C)[C@H](N(C)C(=O)[C@H](CC(C)C)N(C)C(=O)[C@H](COC)N(C)C(=O)[C@H](OC(=O)[C@H](C(C)C)N(C)C)C(C)C)C(=O)N(C)[C@@H](COC)C(=O)N1C [Coibamide A (1a), coibamide A] (NMe2Val-[dHiv][NMeS](Me)[NMeL][NMeT][NMeS](Me)[NMeI]A[NMeL]Y(Me)[dNMeA]; ester 4-C)
CC50 [1]: 50 ± 6 nM
CC50 at 72 h [6]: 6.7 ± 2.1 nM
IC50 [3]: 1.1 ± 0.3 nM
CC50 [5]: 1.5 ± 0.4 nM
CC50 [4]: 2.7 ± 0.5 nM

CC[C@H](C)[C@H]1C(=O)N[C@@H](C)C(=O)N(C)[C@@H](CC(C)C)C(=O)N[C@@H](Cc2ccc(OC)cc2)C(=O)N(C)[C@H](C)CC[C@H](C)[C@H](N(C)C(=O)[C@H](CC(C)C)N(C)C(=O)[C@H](C)N(C)C(=O)[C@H](OC(=O)[C@H](C(C)C)N(C)C)C(C)C)C(=O)N(C)[C@@H](C)C(=O)N1C [Peptide 3a]
expression of endogenous secreted VEGF-A (in words) [7]: statistically significant and concentration-dependent decreases
CC50 [1]: 56 ± 2 nM
CC50 [2]: 213 ± 29 nM
IC50 [3]: 18 ± 1 nM
CC50 [5]: 41 ± 4 nM
CC50 [4]: 121 ± 23 nM

CC[C@H](C)[C@H]1C(=O)N[C@@H](C)C(=O)N(C)[C@@H](CC(C)C)C(=O)N[C@@H](Cc2ccc(OC)cc2)C(=O)N(C)[C@H](C)C(=O)N(C)C[C@H](N(C)C(=O)[C@H](CC(C)C)N(C)C(=O)[C@H](C)N(C)C(=O)[C@H](OC(=O)[C@H](C(C)C)N(C)C)C(C)C)C(=O)N(C)[C@@H](C)C(=O)N1C [Peptide 17b]
CC50 [5]: 6500 nM
